Values after ≈ are worked out from the molar mass of the structure shown.
Tests used:
H9 [1] = experiment: Antiviral activity against HIV-1(IIIB) infected H9 cell lines.; type: functional, cell-based; conditions: Homo sapiens
H9 [2] = experiment: Concentration which was toxic to 50% of the mock-infected H9 lymphocyte.; type: functional, cell-based; conditions: Homo sapiens
[3] = Therapeutic index was determined; conditions: for selectivity ratio: read-out: TI

EC50 (H9 [1]) [µg/mL]	SMILES	IC50 (H9 [2]) [µg/mL]	selectivity ratio [3]	TI [3]
0.0039 (≈ 0.00665 µM)	CC1(C)CC[C@]2(C(=O)O)CC[C@]3(C)[C@H](CC[C@@H]4[C@@]5(C)CC[C@H](OC(=O)CC(C)(C)C(=O)O)C(C)(C)[C@@H]5CC[C@]43C)[C@@H]2C1	13.7 (≈ 23.3 µM)	3570	–
0.1 (≈ 0.138 µM)	CC(C)(CC(=O)O)CC(=O)NC[C@]12CCC(C)(C)C[C@H]1C1=CC[C@@H]3[C@@]4(C)CC[C@H](OC(=O)CC(C)(C)CC(=O)O)C(C)(C)[C@@H]4CC[C@@]3(C)[C@]1(C)CC2	21.2 (≈ 29.2 µM)	212	–
0.5 (≈ 1.09 µM)	CC1(C)CC[C@]2(C(=O)O)CC[C@]3(C)[C@H](CC[C@@H]4[C@@]5(C)CC[C@H](O)C(C)(C)[C@@H]5CC[C@]43C)[C@@H]2C1	17.4 (≈ 37.9 µM)	34.8	–
7.1 (≈ 12.4 µM)	CC1(C)CC[C@]2(C(=O)O)CC[C@]3(C)C(=CC[C@@H]4[C@@]5(C)CC[C@H](OC(=O)CCCC(=O)O)C(C)(C)[C@@H]5CC[C@]43C)[C@@H]2C1	14.6 (≈ 25.6 µM)	–	–
0.1 (≈ 0.129 µM)	CC1(C)CC[C@]2(CNC(=O)CC3(CC(=O)O)CCCC3)CC[C@]3(C)C(=CC[C@@H]4[C@@]5(C)CC[C@H](OC(=O)CC6(CC(=O)O)CCCC6)C(C)(C)[C@@H]5CC[C@]43C)[C@@H]2C1	19.5 (≈ 25.1 µM)	195	–

Second part, the molecule before the results:

SMILES	EC50 (H9 [1]) [µg/mL]	IC50 (H9 [2]) [µg/mL]	selectivity ratio [3]	TI [3]
CC1(C)CC[C@]2(C(=O)O)CC[C@]3(C)[C@H](CC[C@@H]4[C@@]5(C)CC[C@H](OC(=O)CCCC(=O)O)C(C)(C)[C@@H]5CC[C@]43C)[C@@H]2C1	2.6 (≈ 4.54 µM)	12.9 (≈ 22.5 µM)	4.9	–
CC(CC(=O)O)CC(=O)O[C@H]1CC[C@]2(C)[C@H]3CC=C4[C@@H]5CC(C)(C)CC[C@]5(C(=O)O)CC[C@@]4(C)[C@]3(C)CC[C@H]2C1(C)C (stereo partly specified)	8.3 (≈ 14.2 µM)	27.5 (≈ 47 µM)	3.3	–
CC(CC(=O)O)CC(=O)O[C@H]1CC[C@]2(C)[C@H]3CC[C@@H]4[C@@H]5CC(C)(C)CC[C@]5(C(=O)O)CC[C@@]4(C)[C@]3(C)CC[C@H]2C1(C)C (stereo partly specified)	0.1 (≈ 0.17 µM)	12.3 (≈ 21 µM)	123	–
CC(C)(CC(=O)O)CC(=O)O[C@H]1CC[C@]2(C)[C@H]3CC[C@@H]4[C@@H]5CC(C)(C)CC[C@]5(C(=O)O)CC[C@@]4(C)[C@]3(C)CC[C@H]2C1(C)C	0.1 (≈ 0.166 µM)	8.3 (≈ 13.8 µM)	83	–
CC(C)(CC(=O)O)CC(=O)O[C@H]1CC[C@]2(C)[C@H]3CC=C4[C@@H]5CC(C)(C)CC[C@]5(C(=O)O)CC[C@@]4(C)[C@]3(C)CC[C@H]2C1(C)C	1.5 (≈ 2.5 µM)	14.2 (≈ 23.7 µM)	–	–
CC1(C)CC[C@]2(C(=O)O)CC[C@]3(C)C(=CC[C@@H]4[C@@]5(C)CC[C@H](OC(=O)CC6(CC(=O)O)CCCC6)C(C)(C)[C@@H]5CC[C@]43C)[C@@H]2C1	1.2 (≈ 1.92 µM)	4.7 (≈ 7.52 µM)	–	–
CC1(C)CC[C@]2(C(=O)O)CC[C@]3(C)[C@H](CC[C@@H]4[C@@]5(C)CC[C@H](OC(=O)CC6(CC(=O)O)CCCC6)C(C)(C)[C@@H]5CC[C@]43C)[C@@H]2C1	0.1 (≈ 0.16 µM)	10.1 (≈ 16.1 µM)	101	–
CC1(C)CC[C@]2(C(=O)O)CC[C@]3(C)C(=CC[C@@H]4[C@@]5(C)CC[C@H](O)C(C)(C)[C@@H]5CC[C@]43C)[C@@H]2C1 [OLEANOLIC_ACID]	1.7 (≈ 3.72 µM)	21.8 (≈ 47.7 µM)	–	12.8
